{"source": "ChEMBL document CHEMBL5696442", "about": "“Discovery of type II inhibitors of TGFβ-activated kinase 1 (TAK1) and mitogen-activated protein kinase kinase kinase kinase 2 (MAP4K2)” (J Med Chem, 2015)", "key": {"[1]": {"biological_target": "Hepatocyte growth factor receptor (Homo sapiens) (UniProt P08581)", "sequence (P08581 whole entry)": "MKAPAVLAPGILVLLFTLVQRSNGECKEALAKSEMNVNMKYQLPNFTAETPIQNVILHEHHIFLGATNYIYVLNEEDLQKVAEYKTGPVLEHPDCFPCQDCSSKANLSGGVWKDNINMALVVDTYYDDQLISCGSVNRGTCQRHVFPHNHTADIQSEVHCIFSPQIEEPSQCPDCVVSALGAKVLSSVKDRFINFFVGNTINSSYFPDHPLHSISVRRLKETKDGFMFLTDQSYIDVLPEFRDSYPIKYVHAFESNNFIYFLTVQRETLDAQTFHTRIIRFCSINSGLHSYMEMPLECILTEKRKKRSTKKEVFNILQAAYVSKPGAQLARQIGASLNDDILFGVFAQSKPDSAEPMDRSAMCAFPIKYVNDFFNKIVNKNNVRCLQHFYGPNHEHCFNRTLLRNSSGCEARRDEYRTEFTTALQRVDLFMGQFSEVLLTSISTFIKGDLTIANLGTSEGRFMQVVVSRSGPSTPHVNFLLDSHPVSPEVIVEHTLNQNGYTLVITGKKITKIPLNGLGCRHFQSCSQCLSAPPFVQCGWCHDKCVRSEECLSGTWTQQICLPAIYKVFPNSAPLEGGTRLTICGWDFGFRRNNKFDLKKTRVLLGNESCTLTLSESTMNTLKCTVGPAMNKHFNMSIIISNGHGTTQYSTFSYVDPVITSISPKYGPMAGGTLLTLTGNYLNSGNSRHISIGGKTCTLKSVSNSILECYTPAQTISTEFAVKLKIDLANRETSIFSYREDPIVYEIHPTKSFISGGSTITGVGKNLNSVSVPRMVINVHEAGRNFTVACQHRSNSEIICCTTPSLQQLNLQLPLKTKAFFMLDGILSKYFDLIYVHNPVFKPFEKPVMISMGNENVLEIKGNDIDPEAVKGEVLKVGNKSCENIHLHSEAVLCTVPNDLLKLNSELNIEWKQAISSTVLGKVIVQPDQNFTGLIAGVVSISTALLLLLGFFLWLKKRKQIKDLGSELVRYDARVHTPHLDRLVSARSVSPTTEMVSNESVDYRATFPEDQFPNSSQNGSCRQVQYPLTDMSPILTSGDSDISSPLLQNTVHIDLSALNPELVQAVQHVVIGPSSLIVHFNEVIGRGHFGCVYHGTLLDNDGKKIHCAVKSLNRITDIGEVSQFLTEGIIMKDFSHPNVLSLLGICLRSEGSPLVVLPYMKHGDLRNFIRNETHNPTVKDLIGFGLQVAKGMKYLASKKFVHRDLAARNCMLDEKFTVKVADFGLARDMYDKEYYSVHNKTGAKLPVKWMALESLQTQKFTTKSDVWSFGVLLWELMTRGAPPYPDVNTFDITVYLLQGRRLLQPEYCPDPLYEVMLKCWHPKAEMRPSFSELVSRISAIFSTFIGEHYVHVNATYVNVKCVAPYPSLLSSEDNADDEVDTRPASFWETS", "test": "Inhibition of MET ACT labeling site in human Huh-7 cell lysate at 1 uM by KiNativ Profiling analysis relative to control", "type": "subcellular"}, "[2]": {"biological_target": "5'-AMP-activated protein kinase catalytic subunit alpha-1 (Homo sapiens) (UniProt Q13131)", "sequence (Q13131 whole entry, looked up)": "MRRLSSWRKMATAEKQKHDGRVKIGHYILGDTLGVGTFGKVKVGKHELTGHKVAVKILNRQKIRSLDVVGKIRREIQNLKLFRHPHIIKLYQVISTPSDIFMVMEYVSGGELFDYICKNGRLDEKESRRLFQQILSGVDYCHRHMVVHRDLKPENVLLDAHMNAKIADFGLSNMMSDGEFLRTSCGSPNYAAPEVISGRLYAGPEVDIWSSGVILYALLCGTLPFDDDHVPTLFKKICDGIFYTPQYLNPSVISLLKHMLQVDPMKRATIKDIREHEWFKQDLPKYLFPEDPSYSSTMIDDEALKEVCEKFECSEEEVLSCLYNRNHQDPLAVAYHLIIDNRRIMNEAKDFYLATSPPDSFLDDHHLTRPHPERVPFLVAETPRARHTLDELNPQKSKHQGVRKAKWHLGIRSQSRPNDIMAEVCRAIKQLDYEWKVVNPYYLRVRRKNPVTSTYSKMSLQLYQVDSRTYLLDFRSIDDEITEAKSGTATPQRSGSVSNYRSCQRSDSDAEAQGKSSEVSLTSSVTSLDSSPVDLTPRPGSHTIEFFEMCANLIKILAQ", "test": "Inhibition of AMPKa1 Lys2 labeling site in human Huh-7 cell lysate at 1 uM by KiNativ Profiling analysis relative to control", "type": "subcellular"}, "[3]": {"biological_target": "Mitogen-activated protein kinase 3 (Homo sapiens) (UniProt P27361)", "sequence (P27361 whole entry)": "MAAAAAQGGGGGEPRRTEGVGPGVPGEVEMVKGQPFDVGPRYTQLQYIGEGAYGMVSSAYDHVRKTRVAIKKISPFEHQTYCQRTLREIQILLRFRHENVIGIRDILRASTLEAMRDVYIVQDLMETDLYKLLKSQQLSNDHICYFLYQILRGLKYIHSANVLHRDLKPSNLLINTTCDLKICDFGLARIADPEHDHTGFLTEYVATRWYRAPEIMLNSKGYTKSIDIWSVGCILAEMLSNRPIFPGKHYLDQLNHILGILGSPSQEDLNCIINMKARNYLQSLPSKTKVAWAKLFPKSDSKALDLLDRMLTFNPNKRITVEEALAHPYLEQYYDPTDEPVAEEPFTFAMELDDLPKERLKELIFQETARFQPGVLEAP", "test": "Inhibition of Erk1 Lys2 labeling site harbouring DLKPSNLLINTTCDLK in human Huh-7 cell lysate at 1 uM by KiNativ Profiling analysis relative to control", "type": "subcellular"}, "[4]": {"biological_target": "Cyclin-dependent kinase 5 (Homo sapiens) (UniProt Q00535)", "sequence (Q00535 whole entry, looked up)": "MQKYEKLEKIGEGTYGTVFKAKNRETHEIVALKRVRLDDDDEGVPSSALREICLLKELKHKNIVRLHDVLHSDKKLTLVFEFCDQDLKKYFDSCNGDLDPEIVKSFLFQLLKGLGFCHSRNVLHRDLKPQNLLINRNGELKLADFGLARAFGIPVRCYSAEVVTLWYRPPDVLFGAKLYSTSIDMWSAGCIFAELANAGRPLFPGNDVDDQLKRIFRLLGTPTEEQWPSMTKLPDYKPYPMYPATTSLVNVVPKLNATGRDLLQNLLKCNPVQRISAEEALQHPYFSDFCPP", "test": "Inhibition of CDK5 Lys2 labeling site harbouring NVLHRDLKPQNLLINR in human Huh-7 cells at 1 uM by KiNativ Profiling analysis relative to control", "type": "cell-based"}, "[5]": {"biological_target": "Microtubule-associated serine/threonine-protein kinase 2 (Homo sapiens) (UniProt Q6P0Q8)", "sequence (Q6P0Q8 whole entry)": "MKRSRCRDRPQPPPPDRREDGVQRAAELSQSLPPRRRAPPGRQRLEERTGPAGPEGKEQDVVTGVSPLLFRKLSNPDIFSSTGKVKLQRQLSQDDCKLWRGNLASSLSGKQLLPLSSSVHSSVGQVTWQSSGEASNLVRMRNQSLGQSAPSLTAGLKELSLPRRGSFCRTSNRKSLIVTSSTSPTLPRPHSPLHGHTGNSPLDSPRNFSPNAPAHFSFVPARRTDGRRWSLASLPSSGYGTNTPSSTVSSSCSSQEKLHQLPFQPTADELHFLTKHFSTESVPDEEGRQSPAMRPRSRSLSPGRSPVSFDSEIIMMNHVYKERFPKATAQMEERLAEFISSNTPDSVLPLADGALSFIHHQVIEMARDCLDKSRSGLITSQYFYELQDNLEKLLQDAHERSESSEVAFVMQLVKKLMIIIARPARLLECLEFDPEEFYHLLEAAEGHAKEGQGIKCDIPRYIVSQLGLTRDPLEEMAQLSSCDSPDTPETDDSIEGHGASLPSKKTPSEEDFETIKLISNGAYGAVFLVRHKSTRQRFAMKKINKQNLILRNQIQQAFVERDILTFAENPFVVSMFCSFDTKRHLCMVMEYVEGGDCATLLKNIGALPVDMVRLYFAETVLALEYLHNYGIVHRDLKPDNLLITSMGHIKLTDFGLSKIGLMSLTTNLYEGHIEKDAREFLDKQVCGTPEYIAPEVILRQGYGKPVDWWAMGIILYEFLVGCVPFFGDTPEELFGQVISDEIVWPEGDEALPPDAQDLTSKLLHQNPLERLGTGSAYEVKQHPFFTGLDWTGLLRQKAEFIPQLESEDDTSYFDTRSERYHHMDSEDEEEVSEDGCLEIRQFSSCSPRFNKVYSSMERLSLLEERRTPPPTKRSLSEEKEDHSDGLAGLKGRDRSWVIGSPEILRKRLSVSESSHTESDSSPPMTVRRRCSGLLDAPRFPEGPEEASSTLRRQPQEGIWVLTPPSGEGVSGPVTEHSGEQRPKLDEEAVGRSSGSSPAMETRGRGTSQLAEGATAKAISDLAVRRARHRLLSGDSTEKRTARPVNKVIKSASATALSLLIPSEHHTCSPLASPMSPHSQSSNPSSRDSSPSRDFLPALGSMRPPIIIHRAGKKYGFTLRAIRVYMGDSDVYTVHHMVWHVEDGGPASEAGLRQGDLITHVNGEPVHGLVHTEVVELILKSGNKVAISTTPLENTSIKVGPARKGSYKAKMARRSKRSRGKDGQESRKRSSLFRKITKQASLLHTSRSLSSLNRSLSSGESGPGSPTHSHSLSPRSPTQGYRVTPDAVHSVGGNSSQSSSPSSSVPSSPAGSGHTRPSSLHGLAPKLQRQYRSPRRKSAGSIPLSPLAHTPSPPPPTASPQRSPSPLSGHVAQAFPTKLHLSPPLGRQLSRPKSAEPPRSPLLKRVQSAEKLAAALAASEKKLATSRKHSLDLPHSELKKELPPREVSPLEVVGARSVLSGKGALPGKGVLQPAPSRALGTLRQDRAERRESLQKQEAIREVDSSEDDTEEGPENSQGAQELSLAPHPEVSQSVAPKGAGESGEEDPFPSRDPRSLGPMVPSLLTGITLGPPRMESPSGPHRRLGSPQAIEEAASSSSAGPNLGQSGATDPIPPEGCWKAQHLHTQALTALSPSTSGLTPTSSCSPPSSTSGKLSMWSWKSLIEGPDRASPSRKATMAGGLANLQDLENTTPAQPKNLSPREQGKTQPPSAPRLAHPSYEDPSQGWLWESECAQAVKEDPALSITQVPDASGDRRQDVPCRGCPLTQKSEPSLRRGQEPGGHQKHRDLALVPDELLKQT", "test": "Inhibition of MAST2 Lys2 labeling site harbouring DLKPDNLLITSMGHIK in human Huh-7 cell lysate at 1 uM by KiNativ Profiling analysis relative to control", "type": "subcellular"}, "[6]": {"biological_target": "T1, Phosphatidylinositol 5-phosphate 4-kinase type-2 beta (Homo sapiens) (UniProt P78356)", "T1 sequence (whole entry)": "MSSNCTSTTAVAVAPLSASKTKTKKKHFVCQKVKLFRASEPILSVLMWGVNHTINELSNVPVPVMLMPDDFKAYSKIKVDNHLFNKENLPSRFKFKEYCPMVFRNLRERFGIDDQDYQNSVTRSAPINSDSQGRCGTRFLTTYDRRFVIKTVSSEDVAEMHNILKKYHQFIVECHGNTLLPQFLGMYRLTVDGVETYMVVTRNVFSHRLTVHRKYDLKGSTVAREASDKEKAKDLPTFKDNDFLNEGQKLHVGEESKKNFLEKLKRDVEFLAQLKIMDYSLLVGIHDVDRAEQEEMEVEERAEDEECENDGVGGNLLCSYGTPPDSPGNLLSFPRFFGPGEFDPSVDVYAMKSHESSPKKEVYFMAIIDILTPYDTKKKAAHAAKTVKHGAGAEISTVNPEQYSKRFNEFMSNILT", "test": "Inhibition of PIP5K2B (unknown origin) at 10 uM by Ambit Kinomescan binding assay"}, "[7]": {"test": "Inhibition of NEK6/7 K2 labeling site harbouring VMHRDIKPANVFITATGVVK in human Huh-7 cells at 1 uM by KiNativ Profiling analysis relative to control", "settings": "condition cancer"}, "[8]": {"biological_target": "Casein kinase I isoform epsilon (Homo sapiens) (UniProt P49674)", "test": "Inhibition of CK1epsilon Lys2 labeling site in human A-375 cells at 0.5 uM by KiNativ Profiling analysis relative to control", "type": "cell-based"}, "[9]": {"biological_target": "Rho-associated protein kinase 1 (Homo sapiens) (UniProt Q13464)", "test": "Inhibition of ROCK1 Lys2 labeling site in human A-375 cells at 0.05 uM by KiNativ Profiling analysis relative to control", "type": "cell-based"}, "[10]": {"biological_target": "Serine/threonine-protein kinase RIO2 (Homo sapiens) (UniProt Q9BVS4)", "sequence (Q9BVS4 whole entry, looked up)": "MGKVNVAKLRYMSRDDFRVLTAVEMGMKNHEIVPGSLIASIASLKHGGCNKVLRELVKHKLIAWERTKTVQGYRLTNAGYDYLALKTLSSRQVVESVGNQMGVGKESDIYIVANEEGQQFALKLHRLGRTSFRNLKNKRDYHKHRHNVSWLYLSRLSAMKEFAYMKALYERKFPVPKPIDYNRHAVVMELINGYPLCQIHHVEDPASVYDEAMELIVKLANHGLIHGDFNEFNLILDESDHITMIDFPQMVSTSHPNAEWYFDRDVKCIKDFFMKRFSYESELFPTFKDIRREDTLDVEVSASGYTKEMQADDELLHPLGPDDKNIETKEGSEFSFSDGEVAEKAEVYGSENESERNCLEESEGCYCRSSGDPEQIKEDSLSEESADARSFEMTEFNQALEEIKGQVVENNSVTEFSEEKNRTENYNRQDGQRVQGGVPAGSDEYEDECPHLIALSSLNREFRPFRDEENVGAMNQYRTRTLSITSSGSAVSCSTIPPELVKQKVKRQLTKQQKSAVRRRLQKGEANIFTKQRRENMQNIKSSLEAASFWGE", "test": "Inhibition of RIOK2 (unknown origin) at 10 uM by Ambit Kinomescan binding assay"}, "[11]": {"biological_target": "T2, Atrial natriuretic peptide receptor 2 (Homo sapiens) (UniProt P20594)", "T2 sequence (whole entry)": "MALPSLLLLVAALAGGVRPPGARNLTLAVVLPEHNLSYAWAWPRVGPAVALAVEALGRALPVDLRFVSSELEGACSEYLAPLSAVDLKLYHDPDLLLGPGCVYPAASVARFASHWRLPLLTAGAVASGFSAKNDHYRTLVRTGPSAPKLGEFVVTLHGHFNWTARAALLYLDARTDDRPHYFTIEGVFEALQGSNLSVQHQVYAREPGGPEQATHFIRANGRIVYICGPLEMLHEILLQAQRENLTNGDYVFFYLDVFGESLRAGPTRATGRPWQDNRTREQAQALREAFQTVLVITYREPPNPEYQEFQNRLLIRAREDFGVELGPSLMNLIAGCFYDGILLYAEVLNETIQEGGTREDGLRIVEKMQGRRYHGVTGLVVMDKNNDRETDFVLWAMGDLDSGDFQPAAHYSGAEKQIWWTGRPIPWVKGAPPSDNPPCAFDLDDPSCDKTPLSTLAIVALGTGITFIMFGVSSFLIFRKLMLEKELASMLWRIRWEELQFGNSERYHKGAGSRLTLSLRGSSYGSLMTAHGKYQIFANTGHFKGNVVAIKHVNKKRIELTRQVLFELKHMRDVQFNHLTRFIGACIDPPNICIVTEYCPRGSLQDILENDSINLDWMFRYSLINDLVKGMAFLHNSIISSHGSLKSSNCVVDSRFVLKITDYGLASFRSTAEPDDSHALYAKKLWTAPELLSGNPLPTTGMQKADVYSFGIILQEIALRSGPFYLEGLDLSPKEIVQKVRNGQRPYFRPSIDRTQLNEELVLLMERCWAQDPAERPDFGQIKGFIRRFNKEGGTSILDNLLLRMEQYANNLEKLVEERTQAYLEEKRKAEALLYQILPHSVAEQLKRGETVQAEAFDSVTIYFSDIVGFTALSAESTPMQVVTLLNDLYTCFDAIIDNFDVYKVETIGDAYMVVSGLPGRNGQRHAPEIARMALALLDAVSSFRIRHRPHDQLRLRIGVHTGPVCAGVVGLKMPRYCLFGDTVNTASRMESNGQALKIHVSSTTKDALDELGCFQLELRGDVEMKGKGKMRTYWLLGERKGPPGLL", "test": "Inhibition of ANPb Lys2 labeling site in human A-375 cells at 5 uM by KiNativ Profiling analysis relative to control", "type": "cell-based"}, "[12]": {"biological_target": "Transient receptor potential cation channel subfamily M member 6 (Homo sapiens) (UniProt Q9BX84)", "test": "Inhibition of TRPM6 (unknown origin) at 1 uM by Ambit Kinomescan binding assay relative to control"}, "[13]": {"biological_target": "Receptor tyrosine-protein kinase erbB-3 (Homo sapiens) (UniProt P21860)", "test": "Inhibition of HER3/ErbB3 Lys1 labeling site in human A-375 cells at 5 uM by KiNativ Profiling analysis relative to control", "type": "cell-based"}}, "note": "The source made the active and inactive calls. The rule behind the calls is not given here."}
{"smiles": "CNc1cc(Oc2cc(C(=O)Nc3cc(N4CCN(C)CC4)cc(C(F)(F)F)c3)ccc2C)ncn1", "values": [{"measurement": "inhibition", "setting": "[1]", "result": 2, "unit": "%"}, {"measurement": "inhibition", "setting": "[2]", "result": 0.5, "unit": "%"}, {"measurement": "inhibition", "setting": "[3]", "result": -4.1, "unit": "%"}, {"measurement": "inhibition", "setting": "[4]", "result": 1.1, "unit": "%"}, {"measurement": "inhibition", "setting": "[5]", "result": 7.2, "unit": "%"}]}
{"smiles": "CCN1CCN(Cc2ccc(NC(=O)c3ccc(C)c(Oc4ccnc5[nH]ccc45)c3)cc2C(F)(F)F)CC1", "values": [{"measurement": "inhibition", "setting": "[6]", "result": "inactive"}, {"measurement": "inhibition at 1 µM", "setting": "[7]", "result": -15.7, "unit": "%"}, {"measurement": "inhibition", "setting": "[8]", "result": 3.3, "unit": "%"}, {"measurement": "inhibition", "setting": "[9]", "result": 6, "unit": "%"}, {"measurement": "inhibition", "setting": "[10]", "result": "inactive"}]}
{"smiles": "CCN1CCN(Cc2ccc(NC(=O)c3ccc(C)c(/C=C/c4cnc5[nH]ccc5c4OC)c3)cc2C(F)(F)F)CC1", "values": [{"measurement": "inhibition", "setting": "[11]", "result": -8.8, "unit": "%"}, {"measurement": "inhibition", "setting": "[12]", "result": 100, "unit": "%"}, {"measurement": "inhibition", "setting": "[13]", "result": -6.6, "unit": "%"}]}
